The values below come from patent US20260125382A1, “COMPOUNDS FOR INHIBITING OR DEGRADING CDK2 AND/OR CDK9 AND MEDICINAL USE THEREOF” (KOREA RESEARCH INSTITUTE OF CHEMICAL TECHNOLOGY, priority 2022, published 2026).

The target in one assay is T1, CDK9 (Homo sapiens, UniProt P50750).
T1 construct: endogenous in cells; host or cells: MDA-MB-231
The experiment in a line: CDK protein degradation activity (Western blotting), CDK9. It counts as cell-based. To be noted: MDA-MB-231 cells, 16 hours, Western blot. In outline: (§1)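 Degradation is judged from CDK2 and CDK9 band intensity relative to tubulin and DMSO-treated cells, after 16 h exposure of MDA-MB-231 cells to three compound concentrations (100 nM, 1 μM, 10 μM).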

A further assay deals with T2, CDK2 (Homo sapiens, UniProt P24941).
T2 construct: endogenous in cells; host or cells: MDA-MB-231
The assay can be described thus: CDK protein degradation activity (Western blotting), CDK2. It counts as cell-based. As to conditions: MDA-MB-231 cells, 16 hours, Western blot. In outline:
as §1

T1 sequence (P50750 whole entry): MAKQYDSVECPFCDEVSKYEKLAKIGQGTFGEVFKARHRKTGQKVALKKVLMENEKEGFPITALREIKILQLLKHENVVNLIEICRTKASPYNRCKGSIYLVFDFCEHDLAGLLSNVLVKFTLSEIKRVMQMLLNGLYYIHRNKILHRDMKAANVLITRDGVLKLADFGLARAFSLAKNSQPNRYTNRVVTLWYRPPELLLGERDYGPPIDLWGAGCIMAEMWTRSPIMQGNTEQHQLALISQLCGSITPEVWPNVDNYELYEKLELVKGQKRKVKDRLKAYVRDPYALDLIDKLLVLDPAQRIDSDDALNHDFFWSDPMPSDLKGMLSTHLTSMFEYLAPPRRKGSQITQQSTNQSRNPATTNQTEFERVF

Regarding `O=C1CC[C@H](N2C(=O)c3cccc(OCC(=O)N4CCC(CN5CCC(c6ccc(Nc7ncnc8c7ncn8[C@H]7C[C@@H](NC(=O)Cc8ccccc8)C7)cc6)CC5)CC4)c3C2=O)C(=O)N1` [Compound 287, N-((1s,3s)-3-(6-((4-(1-((1-(2-((2-(2,6-dioxopiperidin-3-yl)-1,3-dioxoisoindolin-4-yl)oxy)acetyl)piperidin-4-yl)methyl)piperidin-4-yl)phenyl)amino)-9H-purin-9-yl)cyclobutyl)-2-phenylacetamide], at CDK9, the “Enzyme degradation CDK9 (% remaining) @ 0.1 μM” value is reported as 0/0/0%, the “Enzyme degradation CDK9 (% remaining) @ 1 μM” value was 0/0/0% and the “Enzyme degradation CDK9 (% remaining) @ 10 μM” value is 0/0/0%. Further, at CDK2, the “Enzyme degradation CDK2 (% remaining) @ 0.1 μM” value is recorded as 0/0/0%, the “Enzyme degradation CDK2 (% remaining) @ 1 μM” value is 0/0/0% and the “Enzyme degradation CDK2 (% remaining) @ 10 μM” value is listed as 0/0/0%.
With `CC(=O)NC1CC(n2cnc3c(NCC4CCN(CC5CCN(C(=O)COc6cccc7c6C(=O)N([C@H]6CCC(=O)NC6=O)C7=O)CC5)CC4)ncnc32)C1` (stereo partly drawn) [Compound 155, N-((1s,3s)-3-(6-(((1-((1-(2-((2-(2,6-dioxopiperidin-3-yl)-1,3-dioxoisoindolin-4-yl)oxy)acetyl)piperidin-4-yl)methyl)piperidin-4-yl)methyl)amino)-9H-purin-9-yl)cyclobutyl)acetamide], on CDK9, the “Enzyme degradation CDK9 (% remaining) @ 0.1 μM” value is reported as 90%, the “Enzyme degradation CDK9 (% remaining) @ 1 μM” value is reported as 40% and the “Enzyme degradation CDK9 (% remaining) @ 10 μM” value was 0%. In addition, on CDK2, the “Enzyme degradation CDK2 (% remaining) @ 0.1 μM” value turned out to be 100%, the “Enzyme degradation CDK2 (% remaining) @ 1 μM” value is reported as 80% and the “Enzyme degradation CDK2 (% remaining) @ 10 μM” value was determined as 10%.
Consider `O=C1CCN(c2coc3cc(C(=O)N4CCC(CN5CCN(c6ccc(Nc7ncnc8c7ncn8[C@H]7C[C@@H](NC(=O)Cc8ccccc8)C7)cc6)CC5)CC4)ccc23)C(=O)N1` [Compound 187, N-((1s,3s)-3-(6-((4-(4-((1-(3-(2,4-dioxotetrahydropyrimidin-1(2H)-yl)benzofuran-6-carbonyl)piperidin-4-yl)methyl)piperazin-1-yl)phenyl)amino)-9H-purin-9-yl)cyclobutyl)-2-phenylacetamide], for which, on CDK9, the “Enzyme degradation CDK9 (% remaining) @ 0.1 μM” value amounted to 10%, the “Enzyme degradation CDK9 (% remaining) @ 1 μM” value is 0% and the “Enzyme degradation CDK9 (% remaining) @ 10 μM” value is reported as 0%. On CDK2, the “Enzyme degradation CDK2 (% remaining) @ 0.1 μM” value is on record as 30%, the “Enzyme degradation CDK2 (% remaining) @ 1 μM” value is 10% and the “Enzyme degradation CDK2 (% remaining) @ 10 μM” value was 20%.
On to `Cc1cccc(C(=O)NC2CC(n3cnc4c(Nc5ccc(N6CCN(CC7CCN(C(=O)CNc8cccc9c8C(=O)N([C@H]8CCC(=O)NC8=O)C9=O)CC7)CC6)cc5)ncnc43)C2)n1` (stereo partly drawn) [Compound 93, N-((1s,3s)-3-(6-((4-(4-((1-((2-(2,6-dioxopiperidin-3-yl)-1,3-dioxoisoindolin-4-yl)glycyl)piperidin-4-yl)methyl)piperazin-1-yl)phenyl)amino)-9H-purin-9-yl)cyclobutyl)-6-methylpicolinamide], for which, at CDK9, the “Enzyme degradation CDK9 (% remaining) @ 0.1 μM” value is recorded as 0/0/0%, the “Enzyme degradation CDK9 (% remaining) @ 1 μM” value is given as 0/0/0% and the “Enzyme degradation CDK9 (% remaining) @ 10 μM” value is listed as 0/0/0%. On CDK2, the “Enzyme degradation CDK2 (% remaining) @ 0.1 μM” value is recorded as 0%, the “Enzyme degradation CDK2 (% remaining) @ 1 μM” value was determined as 10% and the “Enzyme degradation CDK2 (% remaining) @ 10 μM” value came out at 10%.
For `O=C1CC[C@H](N2C(=O)C=C(Nc3cccc(CC(=O)N4CCC(CN5CCN(c6ccc(Nc7ncnc8c7ncn8C7CC(NC(=O)Cc8ccccc8)C7)cc6)CC5)CC4)c3)C2=O)C(=O)N1` (stereo partly drawn) [Compound 188, N-((1s,3s)-3-(6-((4-(4-((1-(2-(3-((1-(2,6-dioxopiperidin-3-yl)-2,5-dioxo-2,5-dihydro-1H-pyrrol-3-yl)amino)phenyl)acetyl)piperidin-4-yl)methyl)piperazin-1-yl)phenyl)amino)-9H-purin-9-yl)cyclobutyl)-2-phenylacetamide], at CDK9, the “Enzyme degradation CDK9 (% remaining) @ 0.1 μM” value worked out at 20%, the “Enzyme degradation CDK9 (% remaining) @ 1 μM” value stood at 20% and the “Enzyme degradation CDK9 (% remaining) @ 10 μM” value is reported as 10%. On CDK2, the “Enzyme degradation CDK2 (% remaining) @ 0.1 μM” value amounted to 80%, the “Enzyme degradation CDK2 (% remaining) @ 1 μM” value was 70% and the “Enzyme degradation CDK2 (% remaining) @ 10 μM” value turned out to be 60%.
Regarding `O=C1CCC(N2C(=O)c3cccc(OCC(=O)N4CCN(CCCN5CCN(c6ccc(Nc7ncnc8c7ncn8[C@H]7C[C@@H](NC(=O)Cc8ccccc8)C7)cc6)CC5)CC4)c3C2=O)C(=O)N1` (stereo partly drawn) [Compound 232, N-((1s,3s)-3-(6-((4-(4-(3-(4-(2-((2-(2,6-dioxopiperidin-3-yl)-1,3-dioxoisoindolin-4-yl)oxy)acetyl)piperazin-1-yl)propyl)piperazin-1-yl)phenyl)amino)-9H-purin-9-yl)cyclobutyl)-2-phenylacetamide], at CDK9, the “Enzyme degradation CDK9 (% remaining) @ 0.1 μM” value was 90%, the “Enzyme degradation CDK9 (% remaining) @ 1 μM” value turned out to be 10% and the “Enzyme degradation CDK9 (% remaining) @ 10 μM” value amounted to 0%. Further, at CDK2, the “Enzyme degradation CDK2 (% remaining) @ 0.1 μM” value worked out at 60%, the “Enzyme degradation CDK2 (% remaining) @ 1 μM” value turned out to be 20% and the “Enzyme degradation CDK2 (% remaining) @ 10 μM” value is recorded as 20%.
On to `O=C1CC[C@@H](c2cccc(OCC(=O)N3CCC4(CC3)CC(N3CCC(c5ccc(Nc6ncnc7c6ncn7C6CC(NC(=O)Cc7ccccc7)C6)cc5)CC3)C4)c2)C(=O)N1` (stereo partly drawn) [Compound 285, N-((1s,3s)-3-(6-((4-(1-(7-(2-(3-(2,6-dioxopiperidin-3-yl)phenoxy)acetyl)-7-azaspiro[3.5]nonan-2-yl)piperidin-4-yl)phenyl)amino)-9H-purin-9-yl)cyclobutyl)-2-phenylacetamide], for which, at CDK9, the “Enzyme degradation CDK9 (% remaining) @ 0.1 μM” value is listed as 0/0/0%, the “Enzyme degradation CDK9 (% remaining) @ 1 μM” value is given as 0/0/0% and the “Enzyme degradation CDK9 (% remaining) @ 10 μM” value is recorded as 0/0/0%. Besides, at CDK2, the “Enzyme degradation CDK2 (% remaining) @ 0.1 μM” value was 10%, the “Enzyme degradation CDK2 (% remaining) @ 1 μM” value stood at 20% and the “Enzyme degradation CDK2 (% remaining) @ 10 μM” value is 20%.
For the compound `O=C1CC[C@H](N2C(=O)c3cccc(OCC(=O)N4CCC(CN5CCC(CNc6ncnc7c6ncn7C6CC(NC(=O)c7c(Cl)cccc7Cl)C6)CC5)CC4)c3C2=O)C(=O)N1` (stereo partly drawn) [Compound 168, 2,6-dichloro-N-((1s,3s)-3-(6-(((1-((1-(2-((2-(2,6-dioxopiperidin-3-yl)-1,3-dioxoisoindolin-4-yl)oxy)acetyl)piperidin-4-yl)methyl)piperidin-4-yl)methyl)amino)-9H-purin-9-yl)cyclobutyl)benzamide], at CDK9, the “Enzyme degradation CDK9 (% remaining) @ 0.1 μM” value was determined as 80%, the “Enzyme degradation CDK9 (% remaining) @ 1 μM” value is listed as 40% and the “Enzyme degradation CDK9 (% remaining) @ 10 μM” value worked out at 10%. Also, at CDK2, the “Enzyme degradation CDK2 (% remaining) @ 0.1 μM” value was determined as 50%, the “Enzyme degradation CDK2 (% remaining) @ 1 μM” value amounted to 10% and the “Enzyme degradation CDK2 (% remaining) @ 10 μM” value is 10%.
